Source: the supplement of paper PMC4862054

Tests used:
Assay in all cases: normalised viability (% of control), CellTiter-Blue; higher = more viable cells (about 100 = DMSO control)
Conditions in all cases: incubation time: 72 h
[1] = test system: BT-549
Summary of the method: (§1)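 Normalised viability is given for a single listed concentration of the series. In 384-well plates, breast cancer cell lines were incubated 72 h with compound, then read with CellTiter-Blue (2 h, 37 °C) at 560/590 nm. Per-plate scaling set vehicle to 100 and a positive kill control to 0, with Z'-factor quality control.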

[2] = test system: CAL-148
Summary of the method: as §1

[3] = test system: CAL-85-1
Summary of the method: as §1

[4] = test system: HCC1937
Summary of the method: as §1

[5] = test system: HDQ-P1
Summary of the method: as §1

[6] = test system: MDA-MB-231
Summary of the method: as §1

[7] = test system: MDA-MB-468
Summary of the method: as §1

[8] = test system: SK-BR-3
Summary of the method: as §1

[9] = test system: BT-474
Summary of the method: as §1

[10] = test system: BT-549; remark: listed apart in the source
Summary of the method: as §1

[11] = test system: CAL-120
Summary of the method: as §1

[12] = test system: CAL-148; remark: listed apart in the source
Summary of the method: as §1

[13] = test system: CAL-51
Summary of the method: as §1

[14] = test system: DU-4475
Summary of the method: as §1

[15] = test system: HCC1599
Summary of the method: as §1

[16] = test system: HCC1937; remark: listed apart in the source
Summary of the method: as §1

[17] = test system: HDQ-P1; remark: listed apart in the source
Summary of the method: as §1

[18] = test system: Hs578T
Summary of the method: as §1

[19] = test system: MDA-MB-436
Summary of the method: as §1

[20] = test system: MFM-223
Summary of the method: as §1

[21] = test system: SK-BR-3; remark: listed apart in the source
Summary of the method: as §1

[22] = test system: CAL-148; remark: listed apart in the source
Experimental: (§2)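 DSRT, CellTiter-Blue viability, 72 h incubation. Signal is normalised to DMSO and benzethonium chloride controls. Value is the normalised response at dose 6.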

[23] = test system: CAL-51; remark: listed apart in the source
Experimental: as §2

[24] = test system: CAL-85-1; remark: listed apart in the source
Experimental: as §2

[25] = test system: DU-4475; remark: listed apart in the source
Experimental: as §2

[26] = test system: HDQ-P1; remark: listed apart in the source
Experimental: as §2

[27] = test system: MDA-MB-453
Experimental: as §2

CCc1cncnc1N1CCN(Cc2nc3ccc(C(F)(F)F)cc3[nH]2)CC1
Conditions	normalised viability [%]
[1], 100 nM	88.2
[2], 10 nM	107
[3], 10 nM	96.3
[4], 100 nM	104
[5], 10 nM	116
[6], 100 nM	91.6
[7], 100 nM	117
[8], 100 nM	98.2
[9], 10 nM	115
[9], 1000 nM	118
[9], 10000 nM	83.7
[10], 10 nM	78.4
[10], 1000 nM	102
[10], 10000 nM	59.9
[11], 10 nM	104
[11], 1000 nM	135
[11], 10000 nM	132
[12], 3 nM	119
[12], 30 nM	95.8
[12], 100 nM	114
[13], 3 nM	94.3
[13], 30 nM	90
[13], 100 nM	91.5
[14], 3 nM	103
[14], 30 nM	91.6
[14], 100 nM	107
[15], 10 nM	77.2
[15], 1000 nM	83
[15], 10000 nM	90.2
[16], 10 nM	108
[16], 1000 nM	107
[16], 10000 nM	86.8
[17], 3 nM	116
[17], 30 nM	108
[17], 100 nM	108
[18], 10 nM	95.4
[18], 1000 nM	122
[18], 10000 nM	88.8
[19], 10 nM	107
[19], 1000 nM	106
[19], 10000 nM	91.7
[20], 10 nM	103
[20], 1000 nM	122
[20], 10000 nM	82.7
[21], 10 nM	105
[21], 1000 nM	104
[21], 10000 nM	117
[22], 300 nM	107
[23], 300 nM	88.1
[24], 300 nM	89.8
[25], 300 nM	105
[26], 300 nM	105
[27], 300 nM	101

Cc1cnc(NC(=O)Nc2cc(Br)c(C)cc2OC[C@@H]2CNCCO2)cn1
Conditions	normalised viability [%]
[1], 10 nM	87.3
[2], 1 nM	90.3
[3], 1 nM	91.4
[4], 10 nM	127
[5], 1 nM	90.1
[6], 10 nM	103
[7], 10 nM	104
[8], 10 nM	88.3
[9], 1 nM	102
[9], 100 nM	107
[9], 1000 nM	107
[10], 1 nM	90.9
[10], 100 nM	96
[10], 1000 nM	92
[11], 1 nM	88.5
[11], 100 nM	96.4
[11], 1000 nM	90.1
[12], 0.3 nM	99.2
[12], 3 nM	90
[12], 10 nM	96.3
[13], 0.3 nM	97.8
[13], 3 nM	85.7
[13], 10 nM	93.1
[14], 0.3 nM	116
[14], 3 nM	94.6
[14], 10 nM	106
[15], 1 nM	112
[15], 100 nM	95.7
[15], 1000 nM	65.7
[16], 1 nM	108
[16], 100 nM	80.7
[16], 1000 nM	50.6
[17], 0.3 nM	104
[17], 3 nM	88.4
[17], 10 nM	68.7
[18], 1 nM	92.6
[18], 100 nM	102
[18], 1000 nM	35
[19], 1 nM	104
[19], 100 nM	83.4
[19], 1000 nM	67.8
[20], 1 nM	104
[20], 100 nM	98.8
[20], 1000 nM	79.5
[21], 1 nM	98.9
[21], 100 nM	101
[21], 1000 nM	30.1
[22], 30 nM	91.7
[23], 30 nM	95.7
[24], 30 nM	92
[25], 30 nM	106
[26], 30 nM	68.4
[27], 30 nM	94.3
